From patent publication US10004751B2, “Compositions and methods for treating Dengue virus infection” (The J. David Gladstone Institutes, priority 2014, dated 2018)

System: DENV
Test: DENV replication in Huh7 cells treated with ARFGAP1 inhibitor
Assay type: cell-based, Dengue virus
Conditions: DENV MOI of 0.5, increasing concentrations, 24 hours post-infection
Description: Human hepatoma Huh7 cells were infected with DENV (MOI of 0.5) and treated with increasing concentrations of QS 11. Viral RNA synthesis, DENV capsid protein levels, and infectious virion production were measured at 24 hours post-infection.

Compound: OC[C@H](Cc1ccccc1)Nc1nc(Oc2ccc3c(c2)CCC3)nc2c1ncn2Cc1ccc(-c2ccccc2)cc1 [QS 11]
- Viral RNA synthesis (FIG. 6A): reduced viral RNA synthesis
- DENV capsid protein levels (FIG. 6B): reduced
- Infectious virion production (FIG. 6C): reduced
